# Test results as given in patent publication US9012655B2, “Antimicrobial/adjuvant compounds and methods” (Denouamed, Inc., priority 2011, dated 2015).
# Key:
# Assay in all cases: MIC panel of challenge pathogens (CLSI)
# Assay type in all cases: cell-based
# [1] = system: Staphylococcus aureus NRS382; conditions: Staphylococcus aureus NRS382; for MIC: read-out: 100% inhibition; for MIC50: read-out: MIC50 (50%); for MIC80: read-out: MIC80 (80%)
# Procedure, shortened: (§1)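 Broth microdilution per CLSI guidelines. Final inoculum 2-8×10^5 CFU/ml, compounds serially two-fold diluted from 128 mg/L top concentration. Incubated in the dark at 30-37° C for 24-48 h, aerobic or anaerobic as appropriate. MIC read visually as 100% inhibition endpoint; MIC50 and MIC80 also reported.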
# [2] = system: Staphylococcus aureus NRS383; conditions: Staphylococcus aureus NRS383; for MIC: read-out: 100% inhibition; for MIC50: read-out: MIC50 (50%); for MIC80: read-out: MIC80 (80%)
# Procedure, shortened: as §1
# [3] = system: Staphylococcus aureus AUR60 7005; conditions: AUR607005, Staphylococcus aureus AUR60 7005; for MIC: read-out: 100% inhibition; for MIC50: read-out: MIC50 (50%); for MIC80: read-out: MIC80 (80%)
# Procedure, shortened: as §1
# [4] = system: Staphylococcus aureus EUP SAU040; conditions: EUPSAU040, Staphylococcus aureus EUP SAU040; for MIC: read-out: 100% inhibition; for MIC50: read-out: MIC50 (50%); for MIC80: read-out: MIC80 (80%)
# Procedure, shortened: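 CLSI broth microdilution; inoculum 2-8×10^5 CFU/ml; 2-fold series, top 128 mg/L; 30-37° C, 24-48 h, dark; visual read, 100% inhibition endpoint.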
# [5] = system: Staphylococcus aureus NRS2 (ATCC700698); conditions: Staphylococcus aureus NRS2 (ATCC700698); for MIC: read-out: 100% inhibition; for MIC50: read-out: MIC50 (50%); for MIC80: read-out: MIC80 (80%)
# Procedure, shortened: as §1
# [6] = system: Staphylococcus epidermidis NRS7; conditions: Staphylococcus epidermidis NRS7; for MIC: read-out: 100% inhibition; for MIC50: read-out: MIC50 (50%); for MIC80: read-out: MIC80 (80%)
# Procedure, shortened: as §1
# [7] = system: Enterococcus faecium ATCC700221; conditions: Enterococcus faecium ATCC700221; for MIC: read-out: 100% inhibition; for MIC50: read-out: MIC50 (50%); for MIC80: read-out: MIC80 (80%)
# Procedure, shortened: as §1
# [8] = system: Staphylococcus aureus AUR131 007035; conditions: AUR131007035, Staphylococcus aureus AUR131 007035; for MIC: read-out: 100% inhibition; for MIC50: read-out: MIC50 (50%); for MIC80: read-out: MIC80 (80%)
# Procedure, shortened: as §1
# [9] = system: Staphylococcus aureus ATCC43300; conditions: Staphylococcus aureus ATCC43300; for MIC: read-out: 100% inhibition; for MIC50: read-out: MIC50 (50%); for MIC80: read-out: MIC80 (80%)
# Procedure, shortened: as §1
# [10] = system: Staphylococcus aureus NRS1 (ATCC700699); conditions: Staphylococcus aureus NRS1 (ATCC700699); for MIC: read-out: 100% inhibition; for MIC50: read-out: MIC50 (50%); for MIC80: read-out: MIC80 (80%)
# Procedure, shortened: as §1
# [11] = system: Staphylococcus epidermidis NRS122; conditions: Staphylococcus epidermidis NRS122; for MIC: read-out: 100% inhibition; for MIC50: read-out: MIC50 (50%); for MIC80: read-out: MIC80 (80%)
# Procedure, shortened: as §1
# [12] = system: Enterococcus faecalis ATCC51299; conditions: Enterococcus faecalis ATCC51299; for MIC: read-out: 100% inhibition; for MIC50: read-out: MIC50 (50%); for MIC80: read-out: MIC80 (80%)
# Procedure, shortened: as §1
# [13] = system: Enterococcus faecalis ATCC29212; conditions: Enterococcus faecalis ATCC29212; for MIC: read-out: 100% inhibition; for MIC50: read-out: MIC50 (50%); for MIC80: read-out: MIC80 (80%)
# Procedure, shortened: as §1
# [14] = system: Staphylococcus aureus EUP MRSA002; conditions: EUPMRSA002, Staphylococcus aureus EUP MRSA002; for MIC: read-out: 100% inhibition; for MIC50: read-out: MIC50 (50%); for MIC80: read-out: MIC80 (80%)
# Procedure, shortened: as §1
# [15] = system: Staphylococcus aureus EUP MRSA004; conditions: EUPMRSA004, Staphylococcus aureus EUP MRSA004; for MIC: read-out: 100% inhibition; for MIC50: read-out: MIC50 (50%); for MIC80: read-out: MIC80 (80%)
# Procedure, shortened: as §1
# [16] = system: Staphylococcus aureus AUR58 7005; conditions: AUR587005, Staphylococcus aureus AUR58 7005; for MIC: read-out: 100% inhibition; for MIC50: read-out: MIC50 (50%); for MIC80: read-out: MIC80 (80%)
# Procedure, shortened: as §1
# [17] = system: Staphylococcus aureus AUR59 7005; conditions: AUR597005, Staphylococcus aureus AUR59 7005; for MIC: read-out: 100% inhibition; for MIC50: read-out: MIC50 (50%); for MIC80: read-out: MIC80 (80%)
# Procedure, shortened: as §1
# [18] = system: Bacillus cereus NCTC6349; conditions: Bacillus cereus NCTC6349; for MIC: read-out: 100% inhibition; for MIC50: read-out: MIC50 (50%); for MIC80: read-out: MIC80 (80%)
# Procedure, shortened: as §1
# [19] = system: Staphylococcus aureus NRS384; conditions: Staphylococcus aureus NRS384; for MIC: read-out: 100% inhibition; for MIC50: read-out: MIC50 (50%); for MIC80: read-out: MIC80 (80%)
# Procedure, shortened: as §1
smiles,measurement,setting,value
"Cc1cc(Cl)ccc1-c1cc(-c2nnn[nH]2)sc1-c1ccc(C)c2ccccc12 [DNM0576, 5-(4-(4-Chloro-2-methylphenyl)-5-(4-methylnaphthalen-1-yl)thiophen-2-yl)-1H-tetrazole]",MIC,[1],0.5 µg/mL
same,MIC50,[1],0.5 µg/mL
same,MIC80,[1],0.5 µg/mL
same,MIC,[2],0.5 µg/mL
same,MIC50,[2],0.5 µg/mL
same,MIC80,[2],0.5 µg/mL
same,MIC,[3],0.5 µg/mL
same,MIC50,[3],0.5 µg/mL
same,MIC80,[3],0.5 µg/mL
same,MIC,[4],≤ 0.25 µg/mL
same,MIC50,[4],≤ 0.25 µg/mL
same,MIC80,[4],≤ 0.25 µg/mL
same,MIC,[5],0.5 µg/mL
same,MIC50,[5],0.5 µg/mL
same,MIC80,[5],0.5 µg/mL
same,MIC,[6],0.5 µg/mL
same,MIC50,[6],0.25 µg/mL
same,MIC80,[6],0.5 µg/mL
same,MIC,[7],0.5 µg/mL
same,MIC50,[7],0.25 µg/mL
same,MIC80,[7],0.25 µg/mL
same,MIC,[8],0.5 µg/mL
same,MIC50,[8],0.5 µg/mL
same,MIC80,[8],0.5 µg/mL
same,MIC,[9],0.5 µg/mL
same,MIC50,[9],0.5 µg/mL
same,MIC80,[9],0.5 µg/mL
same,MIC,[10],0.5 µg/mL
same,MIC50,[10],0.25 µg/mL
same,MIC80,[10],0.5 µg/mL
same,MIC,[11],2 µg/mL
same,MIC50,[11],2 µg/mL
same,MIC80,[11],2 µg/mL
same,MIC,[12],1 µg/mL
same,MIC50,[12],1 µg/mL
same,MIC80,[12],1 µg/mL
same,MIC,[13],1 µg/mL
same,MIC50,[13],1 µg/mL
same,MIC80,[13],1 µg/mL
same,MIC,[14],≤ 0.25 µg/mL
same,MIC50,[14],≤ 0.25 µg/mL
same,MIC80,[14],≤ 0.25 µg/mL
same,MIC,[15],≤ 0.25 µg/mL
same,MIC50,[15],≤ 0.25 µg/mL
same,MIC80,[15],≤ 0.25 µg/mL
same,MIC,[16],0.5 µg/mL
same,MIC50,[16],0.5 µg/mL
same,MIC80,[16],0.5 µg/mL
same,MIC,[17],0.5 µg/mL
same,MIC50,[17],0.5 µg/mL
same,MIC80,[17],0.5 µg/mL
same,MIC,[18],0.5 µg/mL
same,MIC50,[18],≤ 0.25 µg/mL
same,MIC80,[18],≤ 0.25 µg/mL
same,MIC,[19],0.5 µg/mL
same,MIC50,[19],0.5 µg/mL
same,MIC80,[19],0.5 µg/mL
"CC(C)c1cc(Cl)ccc1-c1cc(C(=O)O)sc1-c1ccc(Cl)cc1C(C)C [DNM0566, 4,5-Bis(4-chloro-2-isopropylphenyl)thiophene-2-carboxylic acid]",MIC,[1],0.5 µg/mL
same,MIC50,[1],0.5 µg/mL
same,MIC80,[1],0.5 µg/mL
same,MIC,[2],≤ 0.25 µg/mL
same,MIC50,[2],≤ 0.25 µg/mL
same,MIC80,[2],≤ 0.25 µg/mL
same,MIC,[3],0.5 µg/mL
same,MIC50,[3],0.5 µg/mL
same,MIC80,[3],0.5 µg/mL
same,MIC,[4],0.5 µg/mL
same,MIC50,[4],0.5 µg/mL
same,MIC80,[4],0.5 µg/mL
same,MIC,[5],0.5 µg/mL
same,MIC50,[5],0.25 µg/mL
same,MIC80,[5],0.5 µg/mL
same,MIC,[6],1 µg/mL
same,MIC50,[6],1 µg/mL
same,MIC80,[6],1 µg/mL
same,MIC,[7],0.5 µg/mL
same,MIC50,[7],0.25 µg/mL
same,MIC80,[7],0.25 µg/mL
same,MIC,[8],≤ 0.25 µg/mL
same,MIC50,[8],≤ 0.25 µg/mL
same,MIC80,[8],≤ 0.25 µg/mL
same,MIC,[9],≤ 0.25 µg/mL
same,MIC50,[9],≤ 0.25 µg/mL
same,MIC80,[9],≤ 0.25 µg/mL
same,MIC,[10],≤ 0.25 µg/mL
same,MIC50,[10],≤ 0.25 µg/mL
same,MIC80,[10],≤ 0.25 µg/mL
same,MIC,[11],2 µg/mL
same,MIC50,[11],1 µg/mL
same,MIC80,[11],2 µg/mL
same,MIC,[12],0.5 µg/mL
same,MIC50,[12],0.5 µg/mL
same,MIC80,[12],0.5 µg/mL
same,MIC,[13],0.5 µg/mL
same,MIC50,[13],0.5 µg/mL
same,MIC80,[13],0.5 µg/mL
same,MIC,[14],≤ 0.25 µg/mL
same,MIC50,[14],≤ 0.25 µg/mL
same,MIC80,[14],≤ 0.25 µg/mL
same,MIC,[15],≤ 0.25 µg/mL
same,MIC50,[15],≤ 0.25 µg/mL
same,MIC80,[15],≤ 0.25 µg/mL
same,MIC,[16],1 µg/mL
same,MIC50,[16],1 µg/mL
same,MIC80,[16],1 µg/mL
same,MIC,[17],0.5 µg/mL
same,MIC50,[17],0.25 µg/mL
same,MIC80,[17],0.25 µg/mL
same,MIC,[18],≤ 0.25 µg/mL
same,MIC50,[18],≤ 0.25 µg/mL
same,MIC80,[18],≤ 0.25 µg/mL
same,MIC,[19],0.5 µg/mL
same,MIC50,[19],0.5 µg/mL
same,MIC80,[19],0.5 µg/mL
